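At the GI50, growth is halved. TGI: concentration producing complete growth inhibition.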
Assays:
Experiment in all cases: NCI tumour cell line growth inhibition, 384-well format
786-0 renal = system: 786-0 renal
A498 renal = system: A498 renal
A549 NSCLC = system: A549 NSCLC
ACHN renal = system: ACHN renal
BT-549 breast = system: BT-549 breast
CAKI-1 renal = system: CAKI-1 renal
COLO 205 colon = system: COLO 205 colon
DU-145 prostate = system: DU-145 prostate
EKVX NSCLC = system: EKVX NSCLC
HCC-2998 colon = system: HCC-2998 colon
HCT-116 colon = system: HCT-116 colon
HCT-15 colon = system: HCT-15 colon
HL-60(TB) leukemia = system: HL-60(TB) leukemia
HOP-62 NSCLC = system: HOP-62 NSCLC
HOP-92 NSCLC = system: HOP-92 NSCLC
HS 578T breast = system: HS 578T breast
HT29 colon = system: HT29 colon
IGROV1 ovarian = system: IGROV1 ovarian
KM12 colon = system: KM12 colon
LOX IMVI melanoma = system: LOX IMVI melanoma
M14 melanoma = system: M14 melanoma
MALME-3M melanoma = system: MALME-3M melanoma
MCF7 breast = system: MCF7 breast
MDA-MB-231 breast = system: MDA-MB-231 breast
MDA-MB-435 melanoma = system: MDA-MB-435 melanoma
MDA-MB-468 breast = system: MDA-MB-468 breast
MOLT-4 leukemia = system: MOLT-4 leukemia
NCI-H226 lung = system: NCI-H226 lung
NCI-H23 lung = system: NCI-H23 lung
NCI-H322M lung = system: NCI-H322M lung
NCI-H460 NSCLC = system: NCI-H460 NSCLC
NCI-H522 lung = system: NCI-H522 lung
NCI/ADR-RES ovarian = system: NCI/ADR-RES ovarian
OVCAR-3 ovarian = system: OVCAR-3 ovarian
OVCAR-4 ovarian = system: OVCAR-4 ovarian
OVCAR-5 ovarian = system: OVCAR-5 ovarian
OVCAR-8 ovarian = system: OVCAR-8 ovarian
PC-3 prostate = system: PC-3 prostate
RPMI-8226 leukemia = system: RPMI-8226 leukemia
RXF 393 renal = system: RXF 393 renal
SF-295 CNS = system: SF-295 CNS
SF-539 CNS = system: SF-539 CNS
SK-MEL-28 melanoma = system: SK-MEL-28 melanoma
SK-MEL-5 melanoma = system: SK-MEL-5 melanoma
SK-OV-3 ovarian = system: SK-OV-3 ovarian
SN12C renal = system: SN12C renal
SNB-19 CNS = system: SNB-19 CNS
SNB-75 CNS = system: SNB-75 CNS
SR leukemia = system: SR leukemia
T-47D breast = system: T-47D breast
U251 glioblastoma = system: U251 glioblastoma
UACC-62 melanoma = system: UACC-62 melanoma
UO-31 renal = system: UO-31 renal

Cc1c(C(=O)Nc2ccc(N3C[C@@H](C)O[C@@H](C)C3)nc2)cccc1-c1ccc(OC(F)(F)F)cc1 was tested, and the GI50 (786-0 renal) was 6.53 µM, the TGI (786-0 renal) was 17.5 µM and the GI50 (A498 renal) was 7 µM. The TGI (A498 renal) was 12.7 µM, the GI50 (A549 NSCLC) was 6.24 µM and the TGI (A549 NSCLC) was 11.7 µM. The GI50 (ACHN renal) was 11.4 µM, the TGI (ACHN renal) was 24.8 µM and the GI50 (BT-549 breast) was 8.61 µM. It also gave a TGI (BT-549 breast) of 22.1 µM, a GI50 (CAKI-1 renal) of 14.7 µM and a TGI (CAKI-1 renal) of 28 µM. The GI50 (COLO 205 colon) was 3.35 µM, the TGI (COLO 205 colon) was 4.86 µM and the GI50 (DU-145 prostate) was 8.5 µM. It also gave a TGI (DU-145 prostate) of 20.9 µM, a GI50 (EKVX NSCLC) of 5.38 µM and a TGI (EKVX NSCLC) of 12.6 µM. For the same molecule, the GI50 (HCC-2998 colon) was 11.9 µM, the TGI (HCC-2998 colon) was 16.5 µM and the GI50 (HCT-116 colon) was 6.16 µM. It also gave a TGI (HCT-116 colon) of 17.8 µM, a GI50 (HCT-15 colon) of 7.15 µM and a TGI (HCT-15 colon) of 13.3 µM. The GI50 (HL-60(TB) leukemia) was 6.8 µM, the TGI (HL-60(TB) leukemia) was 12.7 µM and the GI50 (HOP-62 NSCLC) was 2.23 µM. For the same molecule, the TGI (HOP-62 NSCLC) was 4.12 µM, the GI50 (HOP-92 NSCLC) was 5.92 µM and the TGI (HOP-92 NSCLC) was 14 µM. It also gave a GI50 (HS 578T breast) of 8.01 µM, a TGI (HS 578T breast) of 20.9 µM and a GI50 (HT29 colon) of 3.55 µM. The TGI (HT29 colon) was 5.04 µM, the GI50 (IGROV1 ovarian) was 12.3 µM and the TGI (IGROV1 ovarian) was 25.4 µM. It also gave a GI50 (KM12 colon) of 12 µM, a TGI (KM12 colon) of 16.6 µM and a GI50 (LOX IMVI melanoma) of 7.94 µM. For the same molecule, the TGI (LOX IMVI melanoma) was 13.8 µM, the GI50 (M14 melanoma) was 16 µM and the TGI (M14 melanoma) was 30.4 µM. The GI50 (MALME-3M melanoma) was 7.69 µM, the TGI (MALME-3M melanoma) was 19.6 µM and the GI50 (MCF7 breast) was 7.5 µM. For the same molecule, the TGI (MCF7 breast) was 13.7 µM, the GI50 (MDA-MB-231 breast) was 3.63 µM and the TGI (MDA-MB-231 breast) was 14.8 µM. For the same molecule, the GI50 (MDA-MB-435 melanoma) was 17.6 µM, the TGI (MDA-MB-435 melanoma) was 32.7 µM and the GI50 (MDA-MB-468 breast) was 5.63 µM. The TGI (MDA-MB-468 breast) was 11.3 µM, the GI50 (MOLT-4 leukemia) was 4.21 µM and the TGI (MOLT-4 leukemia) was 15.4 µM. It also gave a GI50 (NCI-H226 lung) of 6.16 µM, a TGI (NCI-H226 lung) of 12.8 µM and a GI50 (NCI-H23 lung) of 7.39 µM. For the same molecule, the TGI (NCI-H23 lung) was 13.5 µM, the GI50 (NCI-H322M lung) was 13.3 µM and the TGI (NCI-H322M lung) was 26.3 µM. For the same molecule, the GI50 (NCI-H460 NSCLC) was 9.46 µM, the TGI (NCI-H460 NSCLC) was 14.5 µM and the GI50 (NCI-H522 lung) was 1.9 µM. It also gave a TGI (NCI-H522 lung) of 3.79 µM, a GI50 (NCI/ADR-RES ovarian) of 5.04 µM and a TGI (NCI/ADR-RES ovarian) of 18 µM. For the same molecule, the GI50 (OVCAR-3 ovarian) was 10.6 µM, the TGI (OVCAR-3 ovarian) was 15.3 µM and the GI50 (OVCAR-4 ovarian) was 4.99 µM. For the same molecule, the TGI (OVCAR-4 ovarian) was 14.9 µM, the GI50 (OVCAR-5 ovarian) was 16.6 µM and the TGI (OVCAR-5 ovarian) was 30.7 µM. The GI50 (OVCAR-8 ovarian) was 10.6 µM, the TGI (OVCAR-8 ovarian) was 15.3 µM and the GI50 (PC-3 prostate) was 12.4 µM. The TGI (PC-3 prostate) was 25 µM, the GI50 (RPMI-8226 leukemia) was 6.67 µM and the TGI (RPMI-8226 leukemia) was 12.7 µM. The GI50 (RXF 393 renal) was 4.85 µM, the TGI (RXF 393 renal) was 8.09 µM and the GI50 (SF-295 CNS) was 8.16 µM. It also gave a GI50 (SF-539 CNS) of 11.2 µM, a TGI (SF-539 CNS) of 18.1 µM and a GI50 (SK-MEL-28 melanoma) of 12.3 µM. The TGI (SK-MEL-28 melanoma) was 17.8 µM, the GI50 (SK-MEL-5 melanoma) was 7.06 µM and the TGI (SK-MEL-5 melanoma) was 13.1 µM. It also gave a GI50 (SK-OV-3 ovarian) of 3.89 µM, a TGI (SK-OV-3 ovarian) of 5.34 µM and a GI50 (SN12C renal) of 13.7 µM. The TGI (SN12C renal) was 26.8 µM, the GI50 (SNB-19 CNS) was 15 µM and the TGI (SNB-19 CNS) was 28.4 µM. It also gave a GI50 (SNB-75 CNS) of 5.67 µM, a GI50 (SR leukemia) of 5.32 µM and a TGI (SR leukemia) of 13.4 µM. It also gave a GI50 (T-47D breast) of 1.47 µM, a TGI (T-47D breast) of 3.43 µM and a GI50 (U251 glioblastoma) of over 31.6 µM. For the same molecule, the TGI (U251 glioblastoma) was over 31.6 µM, the GI50 (UACC-62 melanoma) was 13 µM and the TGI (UACC-62 melanoma) was 17.5 µM. The GI50 (UO-31 renal) was over 40.2 µM and the TGI (UO-31 renal) was over 54.6 µM.

From PubChem BioAssay (NCI)
